Source: patent publication US6469027B1, “N-methyl-D-aspartate (NMDA) receptor blockers for the prevention of atherosclerosis” (The Board of Regents of the University of Nebraska, priority 1996, dated 2002)
“Also recorded” adds a separate entry of the source. Where two headings read alike, the source gives them in different places.

Columns and labels:
VSMC = details: low concentrations
c-myb [1] = test: c-myb expression in N-VSMC (RT-PCR, immunoprecipitation and western blot); type: cell-based, chicken; details: for effect on homocysteine-induced c-myb induction: 200 μM H[cys], 50 μM Mk-801 or 1 mM CGS19755, 24 hours
Method: FIGS. 3A, 3B and 3C are RNA blot analyses of c-fos and c-myb mRNA isolated from N-VSMC cultures. Cultures were incubated in the absence and presence of 200μM H[cys] for 0, (lane 1); 15 min, (lane 2); 30 min, (lane 3); 45 min, (lane 4) and 60 min, (lane 5); and analyzed for c-fos expression. In FIG. 3B, the time course of c-myb MRNA induction in the presence of 200μM H[cys] for 0 h, (lane 1); 8 h, (lane 2); 16 h, (lane 3); 24 h, (lane 4). The c-fos transcripts were analyzed by northern blot and normalized to β actin expression. The amount of c-myb mRNA levels were normalized to estrogen receptor (ER) transcripts as determined by RT-PCR. […] The amount of c-myb mRNA levels were normalized to estrogen receptor (ER) transcripts as determined by RT-PCR. The amount of specific radiolabeling in the autoradiograph was quantified by scanning densitometry. The size of the c-Myb protein is 75 kilodaltons. The 75 kilodalton band is defined as c-Myb because immunoprecipitation of this protein was not detected in the presence of synthetic polypeptide [[…] encoded by sequences 1080-1133].
FIG. 4 is a graph illustrating the analysis of c-myb synthesis in response to NMDA receptor antagonist, Mk-801 and CGS19755. Immunoprecipitation and western blotting of radiolabeled c-Myb from N-VSMC treated with 200μMH[cys] in the presence and absence of 50 μM Mk-801 or 1 mM CGS19755. Cell cultures were treated with and without H[cys] for 24 hours, extracts were immunoprecipitated with anti c-myb IgG and samples were separated by SDS-PAGE gels and western blotted. The amount of specific radiolabeling in the autoradiograph was quantified by scanning densitometry. The size of the c-Myb protein is 75 kilodaltons. The 75 kilodalton band is defined as c-Myb because immunoprecipitation of this protein was not detected in the presence of synthetic polypeptide [I13-[…] encoded by sequences 1080-1133].
RNA Blot Analysis: Total RNA was isolated from VSMC derived from thoracic and abdominal aorta by homogenization, and lysis with guanidinium isothiocyanate was followed by phenol-chloroform extraction. Ten micrograms of total RNA per lane was separated in a 1.5% agarose-formaldehyde gel, and the RNA was transferred by capillary transfer to a 0.45 μm nylon membrane. Filters were hybridized as previously with cDNAs labeled with [^32P]deoxycytidine5′-triphosphate to specific activities of approximately 2×10^9 cpm/μg using a random prime labeling kit (Boehringer Mannheim Biochemicals, Indianapolis, Ind.). The probes included chicken c-fos, Bactin, estrogen receptor (ER) and c myb.
Reverse Transcriptase-Polymerase Chain Reaction: Reverse transcription of 4 to 10,000 nanograms (ng) of RNA using 10 picomoles (pm) of hexamer primers was performed for 90 minutes (min) at 37° C. using 200 units superscript reverse transcriptase (Gibco BRL), in 50 mM Tris, pH, 8.2, 75 Mm KC1, 3 mM MgCl2, 10 mM dithiothreitol (DTT), 1 unit/μ1 RNasin (Promega), and 1 mM each of DATP, dCTP, dGTP, and dTTP. The samples were heated at 95° C. for 5 min to terminate the reverse transcription. The resulting cDNA was treated with 1 unit of […] at 37° C. for 20 min. A 5% fraction of the cDNA was subjected to PCR using c-myb upstream (5′ggTCCTTTgAAgATgCTgCC3′) and downstream(5′[…]gAgTCCgggTTg3′) primers; estrogen receptor (ER) (5′ggACTgCCAgCTgCCgATCTT3′) and (5′CTCACgAATgTggCgCCT3′) primers; β actin (5′AAgAggTAATCCTgACCCCTgAA3′) and (5′ACCCTgACCATCAgggAgTTCA3′) primers. PCR was performed using 0.25 μM of each primer, 3 μM cDNA, 0.2 mM of each deoxynucleotide triphosphate, 75 mM KC1, 1.5 mM MgCl2 and 0.5 unit Taq polymerase (Perkin Elmer; Cetus) in 10 mM Tris-HC1, pH 8.3 with total volume of 100 μl. […] PCR products were analyzed by electrophoresis in 1.5% agarose gels stained with ethidium bromide. PCR amplifications of all target templates and controls were run in parallel or on the same sample. […]

N-VSMC [2] = test: Cell proliferation (cell number) of N-VSMC cultures; type: cell-based, chicken; details: for effect on increase in cell number in the presence of H[cys]: 1% FBS and 100 μM H[cys]; for cell damage after treatment for ten days: low levels of PKC inhibitors, growth after removal
Method: FIGS. 5A and 5B are graphs illustrating cell growth and DNA synthesis of N-VSMC cultures. (A) Cells were cultured in M199 supplemented with 1% FBS in the presence and absence of 100 μM H[cys]. The medium was renewed every three days and cell numbers were determined by Coulter counter or emocytometer. Each point represents the mean of quadruplicate samples counted six times. (B) Cells were grown to confluency, growth arrested in M199 and 1 μg/ml of bovine serum albumin for two days. Cultures were exposed to various concentrations of H[cys] (0.01-1000 μM) for 30 h, pulse labeled for 6 h with 2 μCi/ml of [^3H]thymidine. The amount of [^3H]thymidine incorporation was determined by scintillation spectrophotometry. Results are shown as the mean of ±S.E.M.
FIGS. 7A-7C are graphs illustrating the effect of H[cys] on diacylglycerol content in N-VSMC. (A) Time course of changes of membrane diacylglycerol content cell treated with 100μM H[cys] for the various times. Cells were recovered, membrane lipids extracted and diacylglycerol amounts determined as described in Methods. Results are expressed as the mean ± standard error of quadruplicate incubations from six independent experiments. (B) Effects of varying concentrations of H[cys] on diacylglycerol synthesis. Cells were treated for 30 min with different concentrations of H[cys] and membrane lipids were isolated and the diacylglycerol content determined. (C) Effect of PKC inhibitors on H[cys] mediated cell proliferation. N-VSMC cultures were grown in 1% FBS and 100 μM H[cys] in the presence and absence of staurosporine and cheleyrithrine chloride for the times (days-d) indicated. Cells were counted in quadruplicate in a Coulter counter every three days. Values represent the mean ±S.D. from four independent experiments.
(§1) Smooth Muscle Culture: The thoracic (N) and abdominal (M) aorta of normal 16 and 18-day embryos were cleaned of fat, and the intima-media was isolated from the adventitia. The intima-media was enzymatically dispersed into a single cell suspensions by a combination of collagenase and elastase followed by trypsin. VSMC were placed in primary culture at a constant density of 2×10^4 cells/cm^2 in multiwell plates or 100 mm culture plates in Medium 199 supplemented with 10% fetal bovine serum (FMS) and 2 mM glutamine, in an atmosphere of 95% air: 5% Co2 at 37° C. Primary cultures were grown for 7 days before they were seeded into first passage at the same cell density and grown to confluence. Experiments were carried out between passages 3-6. Experimental conditions for all cells included 48 h in Medium 199 supplemented with 1% FBS prior to initiating and experiment.

[3] = system: Thoracic aorta VSMC from E14 embryos; test: Intracellular Ca++ by Fura 2 fluorometry; type: cell-based, chicken; details: 15 min pretreatment
Method: FIGS. 8A and 8B are graphs illustrating E14 embryonic neural crest-derived response to Hcy. (A) Normal E14 cell response; (B) Ca++ influx is prevented by 15 min pretreatment with NMDA receptor blocker MK801, which acts at the NMDA receptor calcium channel.
The most common signaling device for mitosis is calcium influx. Therefore, the inventors measured the change in intracellular Ca^++ by Fura 2 fluorometry. Thoracic aorta VSMC from E14 embryos were harvested and grown on coverslips using the procedure set forth above. Fura 2 was added during 45 minutes at room temperature. Then the cover slips were placed in a photometer. Fura 2 was excited at 350 and 380 nm with a xenon light source, appropriate monochromators and a chopper (Deltascan, Princeton). Emitted signals passed through a 510±20 band pass filter. When the cells were treated with a solution of 200 μM Hcy, there was a rapid flux of Ca^++ that reached a plateau in about 50 seconds, and remained elevated for the duration of the 500 sec measurement interval as shown in FIGS. 8A and 8B. Similar results have been found with adult rabbit aortic smooth muscle cells, as set forth below.

TA-VSMCs = test: [3H]thymidine labeling (DNA synthesis) in TA-VSMCs; type: cell-based
Excerpt: Effect of calcium channel activation on DNA synthesis. Effect of glutamate receptor calcium channels and L-type calcium channels activation was examined by measuring [^3H]thymidine labeling.

c-myb [4] = test: c-myb expression in TA-VSMCs; type: cell-based; details: NMDA receptor blockers
N-VSMC [5] = test: [3H]thymidine incorporation (DNA synthesis) in N-VSMC cultures; type: cell-based, chicken
Method: FIG. 1 is a graph illustrating homocysteine's effects on the growth of VSMC cultures. Confluent N-VSMC cultures were growth arrested by incubating cells with M199 medium containing 1 μg/ml BSA for 48 h, exposed to various concentrations of H[cys] (0.01-4000μM) for 30 h, pulse labeled for 6 h with 2 μCi/ml [^3H]-thymidine, and cell monolayers were washed twice with cold (0° C.) 10% trichloroacetic acid (TCA). The amount of [^3H]-thymidine incorporation was determined by scintillation spectrophotometry. Results are shown as the means of ±S.D.
FIGS. 2A-2C are graphs illustrating the effects of glutamate, homocysteic acid and NMDA on DNA synthesis in N-VSMC. N-VSMC were cultured and serum-deprived as described in “Experimental Procedures.” Cultures were treated with various concentrations of homocysteic acid (2A), NMDA (2B), or L-glutamate (2C) for 30 and pulsed 6h with [^3H] thymidine. All values are expressed as ±S.D. of six independent experiments completed in quadruplicate.
as §1
DNA Synthesis: Growth factors were added directly to quiescent VSMCs in Medium 199 as described above. The cells were pulsed between 4-6 h with a final concentration of 2-5 μCi/ml [^3H]thymidine added at the times and for the periods indicated in the figure legends. The cells were washed, and the incorporation of [^3H]thymidine into acid insoluble material was determined as previously described. Den-Heijer, M. et al. (1996), Hyperhomocystinemia as a risk factor for deep-vein thrombosis. N. Eng. J. Med. 334(12):759-762.

[6] = high doses; cited from earlier work

With `CCO` [ethanol] the “effect on pharmacological effect of homocysteine in VSMC” value (VSMC) was “completely blocked”.

For `C[C@]12N[C@H](Cc3ccccc31)c1ccccc12` [MK-801], the “effect on homocysteine-induced c-myb induction” value (c-myb [1]) was “completely suppressed; also recorded: block”, the “effect on homocysteine-induced cell proliferation” value (N-VSMC [2]) was “inhibited” and the “effect on homocysteine-induced cell proliferation” value (N-VSMC [2]; listed as Mk-801) was “block”. For the same molecule, the “effect on Hcy-induced Ca++ influx” value [3] was “prevented”, the “effect on NMDA and homocysteine DNA synthesis responses” value (TA-VSMCs) was “blocked” and the “effect on homocysteine effect on c-myb expression” value (c-myb [4]) was “blocked”.

In the case of `CN[C@@H]1C[C@H]2O[C@@](C)([C@@H]1OC)n1c3ccccc3c3c4c(c5c6ccccc6n2c5c31)C(=O)NC4` [staurosporine], the “effect on increase in cell number in the presence of H[cys]” value (N-VSMC [2]) is reported as “blocked” and the “cell damage after treatment for ten days” value (N-VSMC [2]) is reported as “did not permanently damage the cells”.

In the case of `O=C(O)[C@@H]1C[C@H](CP(=O)(O)O)CCN1` [CGS 19755], the “effect on homocysteine-induced c-myb induction” value (c-myb [1]) is reported as “blocked”, the “effect on homocysteine-induced c-myb induction” value (c-myb [1]; listed as CGS19755) is reported as “block” and the “effect on homocysteine-induced cell proliferation” value (N-VSMC [2]) is reported as “inhibited; also recorded: no increase in cell proliferation”. The “effect on homocysteine-induced cell proliferation” value (N-VSMC [2]; listed as CGS19755) was “block”, the “effect on NMDA and homocysteine DNA synthesis responses” value (TA-VSMCs) was “blocked” and the “effect on homocysteine effect on c-myb expression” value (c-myb [4]) was “blocked”.

With `N[C@@H](CCS(=O)(=O)O)C(=O)O` [homocysteic acid] the “[3H] thymidine incorporation stimulated” value (N-VSMC [5]; 1 mM) was 2 fold.

For `CN[C@H](CC(=O)O)C(=O)O` [NMDA, N-methyl D-aspartate acid], the “activation of the same responses as H[cys]” value (N-VSMC [5]) was “do not significantly activate”, the “[3H] thymidine incorporation stimulated” value (N-VSMC [5]; 10 mM) was 2 fold and the “expression of Myb, agonist per se” value (c-myb [1]; embryonic smooth muscle cells) was “did not induce”. For the same molecule, the “[3H] thymidine increased” value (TA-VSMCs; incubated with NMDA) was 2 fold.

For `COc1ccc2c(c1)[C@]13CCCC[C@@H]1[C@H](C2)N(C)CC3` [dextromethorphan], the side effects [6] is given as “drowsiness, nausea, and decreased coordination”.

With `COc1ccc2c(c[n+](C)c3c4cc5c(cc4ccc23)OCO5)c1OC.[Cl-]` [cheleyrthrine chloride] the “effect on increase in cell number in the presence of H[cys]” value (N-VSMC [2]) was “blocked” and the “cell damage after treatment for ten days” value (N-VSMC [2]) was “did not permanently damage the cells”.

In the case of `N[C@@H](CCC(=O)O)C(=O)O` [glutamate, L-glutamate], the “activation of the same responses as H[cys]” value (N-VSMC [5]) is reported as “do not significantly activate” and the “[3H] thymidine incorporation stimulated” value (N-VSMC [5]; 10 mM) is reported as 2 fold.

For `O=C(O)CN(CCOCCOCCN(CC(=O)O)CC(=O)O)CC(=O)O` [EGTA], the “effect on stimulation of DNA synthesis” value (TA-VSMCs; chelation of extra cellular Ca2+ by addition to the medium) was “prevented”.
